According to patent US20220267365A1, “NOVEL PHOSPHATE ESTER COMPOUND HAVING PYRROLOPYRIMIDINE SKELETON OR PHARMACEUTICALLY ACCEPTABLE SALT THEREOF” (TAIHO PHARMACEUTICAL CO., LTD., priority 2019, published 2022):
Where a name gives a salt, the structure may show the parent alone. Blank lines part the entries; values can stand above or below the compound they belong to.

Legend:
[1] = Test Example 1: presence of prodrug in mouse and absorbency, oral administration, plasma AUC; assay type: in vivo, mice (Balb/cA, male); conditions: for presence of prodrug in mouse (conversion into active compound): oral administration
Protocol: The dosage amounts of the compound of Comparative Example 1, a triethylamine salt of the compound of Example 1, the compound of Comparative Example 2 and the compound of Example 2 were set to be 50 mg/10 mL/kg, 62 mg/10 mL/kg (50 mg/10 mL/kg in terms of free compound), 3 mg/10 mL/kg, and 3.6 mg/10 mL/kg, respectively. Solutions for administration were prepared with a 0.5% aqueous solution of HPMC so as to satisfy the above dosage amounts. Note that a solution for administration of a triethylamine salt of the compound of Example 1 was prepared by adding 1 molar equivalent of triethylamine.
The dosage amounts of the compound of Comparative Example 3 and the compound of Example 5 were set to be 3 mg/10 mL/kg and 3.8 mg/10 mL/kg, respectively. Solutions thereof for administration were prepared with a 0.5% aqueous solution of HPMC so as to satisfy the above dosage amounts.
Note that, the “mg/10 mL/kg” means as follows: for example “50 mg/10 mL/kg” means that 50 mg of a test compound per body-weight (1 kg) of a mouse was dispersed or dissolved in a solution (10 mL) for administering a compound. The same applies hereinafter.
The solutions for administration prepared above were orally administered to mice (Balb/cA, male) not fasted each by use of an oral administration sonde.
The mice were anesthetized with isoflurane 0.5, 1, 2, 4 and 6 hours after administration and blood was taken from the facial vein by use of a specific needle (animal lancet) and a heparin-coated hematocrit tube.
The blood sampled was immediately centrifuged (13000 rpm, 2 minutes, 4° C.) to prepare the plasma samples. After proteins were removed from the plasma samples, the concentrations of the test compound in the plasma samples were measured by LC/MS/MS.
The value of “area under the curve” (AUC) of drug concentration in blood versus time was calculated using analysis software such as Phoenix (registered trademark) WinNonlin (registered trademark).
More specifically, the results of the compounds of Comparative Examples 1 and 2 and triethylamine salt of Example 1, and the compound of Example 2 are shown in Table 2; whereas, the results of the compounds of Comparative Example 3 and Example 5 are shown in Table 3. In Table 2 and Table 3, “Comparative Example 1”, “Comparative Example 2”, and “Comparative Example 3” represent the “compound (Br form) of Comparative Example 1”, the “compound (I form) of Comparative Example 2” and the “compound (Cl form) of Comparative Example 3”, respectively.

[2] = Test Example 2: presence of prodrug in mouse and absorbency, caudal vein administration, plasma AUC; assay type: in vivo, mice (Balb/cA, male); conditions: for presence of prodrug in mouse (conversion into active compound): caudal vein administration of disodium salts; for AUC(0-t): male, Balb/cA, caudal vein, physiological saline, mouse plasma, unchanged prodrug
Protocol: The dosage amounts of a disodium salt of the compound of Example 1, a disodium salt of the compound of Example 2, a disodium salt of the compound of Example 3, a disodium salt of the compound of Example 4 and a disodium salt of the compound of Example 5 were set to be 26 mg/5 mL/kg, 12 mg/5 mL/kg, 12 mg/5 mL/kg, 12 mg/5 mL/kg, and 11 mg/5 mL/kg, respectively. Solutions for administration were prepared by dissolving the compounds in physiological saline so as to satisfy the above dosage amounts, respectively. Note that solutions for administration of disodium salts of the compounds of Examples 1 to 4 were prepared by adding 2 molar equivalents of sodium hydroxide.
Mice (Balb/cA, male) not fasted were each immobilized on a specific fixed table, sterilized with ethanol for disinfection. Each of the solutions prepared above was administered through the caudal vein by use of a syringe and a needle.
Blood was taken from the facial vein, 0.25, 0.5, 1, 2, 4 and 6 hours after administration by use of a specific needle (animal lancet) and a heparin-coated hematocrit tube.
The blood sampled were immediately centrifuged (13000 rpm, 2 minutes, 4° C.) to prepare the plasma samples. After proteins were removed from the plasma samples, the concentrations of the test compound in the plasma samples were measured by LC/MS/MS.
The value of AUC was calculated using analysis software such as Phoenix (registered trademark), WinNonlin (registered trademark).
The AUC (AUC 0-6 hr) values obtained in the time period of 0 to 6 hours after administration of sodium salts of the compounds of Example 1 to 4 are shown in Table 4; and the AUC (AUC 0-6 hr) values obtained in the time period of 0 to 6 hours after administration of a sodium salt of the compound of Example 5 are shown in Table 5. In Table 4 and Table 5, “Comparative Example 1”, “Comparative Example 2” and “Comparative Example 3” represent the “compound (Br form) of Comparative Example 1”, the “compound (I form) of Comparative Example 2”, and the “compound (Cl form) of Comparative Example 3”, respectively.

[3] = tested on: human brain tumor cell line (U-87 MG); experiment: Test Example 6: antitumor effect and toxicity in mouse, subcutaneous U-87 MG transplant; assay type: in vivo, BALB/cA Jcl-nu/nu mice
Protocol: The day of grouping mice was determined Day 0.
TV (mm^3)=(major axis×minor axis^2)/2
RTV=(TV on evaluation date)/(TV on Day 0)
IR (%)=(1−(RTV of administration group on evaluation date)/(RTV of control group on evaluation date))×100

[4] = tested on: human hematopoietic organ tumor cell line (MV-4-11); experiment: Test Example 7: antitumor effect and toxicity in mouse, subcutaneous MV-4-11 transplant
Protocol: A human hematopoietic organ tumor cell line (MV-4-11) was subcutaneously transplanted in the right chest of each of BALB/cA Jcl-nu/nu mice. After tumor transplantation, the major axes (mm) and minor axes (mm) of the tumors were measured and tumor volumes (TV) were calculated. The mice were assigned to individual groups such that the average TVs of the groups became equal. The day of grouping mice was determined Day 0.
Thereafter, administration was continued as long as a weight loss was acceptable and then evaluated.
The tumor volumes (TV) and body weights (BW) of individual groups were evaluated. As the indexes of antitumor effect and toxicity, the relative tumor volume (RTV) to that of Day 0 and a body weight change (BWC) relative to that of Day 0 were obtained, respectively, in accordance with the following equations and plotted on a chart.
BWC (%)=(BW on evaluation date−BW on Day 0)/(BW on Day 0)×100
T/C (%)=(Number of blood cell component in administration group/Number of blood cell component in control group)×100

H1650 = experiment: Test Example 4 growth suppression activity, CellTiter-Glo; assay type: cell-based; conditions: NCI-H1650, 72 h; H1650, Human lung cancer, 3 days
Protocol: (§1) Human tumor cell lines different in type were suspended in mediums, seeded in individual wells of a multi-well plate and cultured. On the day after initiation of culture, serially diluted solutions of a compound were added. Culture was carried out for further 3 days. Cells were counted by a CellTiter-Glo (manufactured by Promega KK) in accordance with the protocol recommended by Promega KK. Cell viability was calculated in accordance with the equation shown below and the concentration (IC50 (nM)) of the compound at which 50% of cell growth is inhibited was obtained.
(§2) Cell viability (%)=(T/C)×100
(§3) T: Intensity of light emitted from a well containing a compound
(§4) C: Intensity of light emitted from a well containing no compound

H358 = experiment: as above; assay type: cell-based; conditions: NCI-H358, 72 h; H358, Human lung cancer, 3 days
Protocol: as §1, §2, §3, §4

A549 = experiment: as above; assay type: cell-based; conditions: 72 h; A549, Human lung cancer, 3 days
Protocol: as §1, §2, §3, §4

H2122 = experiment: as above; assay type: cell-based; conditions: NCI-H2122, 72 h; H2122, Human lung cancer, 3 days
Protocol: as §1, §2, §3, §4

DU145 = experiment: Test Example 3 growth suppression activity, CellTiter-Glo; assay type: cell-based; conditions: DU-145, 72 h; DU145, Human prostate cancer, 3 days
Protocol: as §1, with “(μM))” for “(nM))”
as §2, §3, §4

[5] = iv, 12 mg/kg, read-out: AUC 0-6 hr in terms of the administered Example compound

Structure (SMILES): Nc1ncnc2c1c(Br)cn2[C@@H]1O[C@H](COP(=O)(O)O)[C@@H](O)[C@@H]1F [Example 1, ((2R,3R,4S,5R)-5-(4-amino-5-bromo-7H-pyrrolo[2,3-d]pyrimidin-7-yl)-4-fluoro-3-hydroxytetrahydrofuran-2-yl)methyl dihydrogen phosphate]
presence of prodrug in mouse (conversion into active compound) [1]: prodrug of the compound (Br form) of Comparative Example 1
presence of prodrug in mouse (conversion into active compound) [2]: prodrug of the compound (Br form) of Comparative Example 1

Structure (SMILES): Nc1ncnc2c1c(I)cn2[C@@H]1O[C@H](COP(=O)(O)O)[C@@H](O)[C@@H]1F [Disodium salt of Example 2, ((2R,3R,4S,5R)-5-(4-amino-5-iodo-7H-pyrrolo[2,3-d]pyrimidin-7-yl)-4-fluoro-3-hydroxytetrahydrofuran-2-yl)methyl dihydrogen phosphate]
AUC(0-t) [2, 5]: 0.64 µM·h

AUC(0-t) ([2]; intravenous, 11 mg/kg, read-out: AUC 0-6 hr in terms of Example 5): 0.08 µM·h
Structure (SMILES): Nc1ncnc2c1c(Cl)cn2[C@@H]1O[C@H](COP(=O)(O)O)[C@@H](O)[C@@H]1F [Disodium salt of Example 5, ((2R,3R,4S,5R)-5-(4-amino-5-chloro-7H-pyrrolo[2,3-d]pyrimidin-7-yl)-4-fluoro-3-hydroxytetrahydrofuran-2-yl)methyl dihydrogen phosphate]

Structure (SMILES): Nc1ncnc2c1c(I)cn2[C@@H]1O[C@H](COP(O)(O)=S)[C@@H](O)[C@@H]1F [Disodium salt of Example 3, O-(((2R,3R,4S,5R)-5-(4-amino-5-iodo-7H-pyrrolo[2,3-d]pyrimidin-7-yl)-4-fluoro-3-hydroxytetrahydrofuran-2-yl)methyl) O,O-dihydrogen phosphorothioate]
AUC(0-t) [2, 5]: 0.18 µM·h

Structure (SMILES): Nc1ncnc2c1c(Cl)cn2[C@@H]1O[C@H](COP(=O)(O)O)[C@@H](O)[C@@H]1F [Example 5, ((2R,3R,4S,5R)-5-(4-amino-5-chloro-7H-pyrrolo[2,3-d]pyrimidin-7-yl)-4-fluoro-3-hydroxytetrahydrofuran-2-yl)methyl dihydrogen phosphate]
presence of prodrug in mouse (conversion into active compound) [1]: prodrug of the compound (Cl form) of Comparative Example 3
presence of prodrug in mouse (conversion into active compound) [2]: prodrug of the compound (Cl form) of Comparative Example

Structure (SMILES): Nc1ncnc2c1c(I)cn2[C@@H]1O[C@H](COP(=O)(O)O)[C@@H](O)[C@@H]1F [Example 2, ((2R,3R,4S,5R)-5-(4-amino-5-iodo-7H-pyrrolo[2,3-d]pyrimidin-7-yl)-4-fluoro-3-hydroxytetrahydrofuran-2-yl)methyl dihydrogen phosphate]
continuation of administration compared to Comparative Example 2-compound administration group ([3]; administration continued until weight loss 20% or more, Day 13 vs Day 6): continued longer
effect on body weight (BWC) ([3]; oral 14.4 mg/kg/day every day): mild
antitumor effect (IR based on RTV) ([3]; oral 14.4 mg/kg/day every day, final day of evaluation Day 13, compared with Comparative Example 2 12 mg/kg/day, Day 6): high antitumor effect
presence of prodrug in mouse (conversion into active compound) [1]: prodrug of the compound (I form) of Comparative Example 2
continuation of administration compared to Comparative Example 2-compound administration group ([4]; Day 15 vs Day 11 (Comparative Example 2 oral 12 mg/kg/day)): continued longer
effect on body weight (BWC) ([4]; osmotic pump 20 mg/kg/day for 14 days): low
hematological toxicity (lymphocytes, monocytes T/C) ([4]; osmotic pump 20 mg/kg/day for 14 days, Day 15): low
antitumor effect (RTV) ([4]; osmotic pump 20 mg/kg/day for 14 days, final day Day 15): remarkable antitumor effect (tumor regression was confirmed)

IC50 (H1650): 11 nM
IC50 (H358): 69 nM
IC50 (A549): 24 nM
IC50 (H2122): 17 nM
AUC(0-t) ([1]; male, Balb/cA, oral, 50 mg/kg (0.14 mmol/kg), 0.5% HPMC, mouse plasma, administered compound, read-out: AUC 0-6 hr): 20.2 µM·h
IC50 (DU145): 90 nM
Structure (SMILES): Nc1ncnc2c1c(Br)cn2[C@@H]1O[C@H](CO)[C@@H](O)[C@@H]1F [Comparative Example 1, (2R,3R,4S,5R)-5-(4-amino-5-bromo-7H-pyrrolo[2,3-d]pyrimidin-7-yl)-4-fluoro-2-(hydroxymethyl) tetrahydrofuran-3-ol]

AUC(0-t) ([2]; iv, 26 mg/kg, read-out: AUC 0-6 hr in terms of Example 1): 0.15 µM·h
Structure (SMILES): Nc1ncnc2c1c(Br)cn2[C@@H]1O[C@H](COP(=O)(O)O)[C@@H](O)[C@@H]1F [Disodium salt of Example 1, ((2R,3R,4S,5R)-5-(4-amino-5-bromo-7H-pyrrolo[2,3-d]pyrimidin-7-yl)-4-fluoro-3-hydroxytetrahydrofuran-2-yl)methyl dihydrogen phosphate]

AUC(0-t) [2, 5]: 9.35 µM·h
Structure (SMILES): Nc1ncnc2c1c(I)cn2[C@@H]1O[C@H](CO)C(OP(=O)(O)O)C1F (stereo partly drawn) [Disodium salt of Example 4, (2R,3R,4S,5R)-5-(4-amino-5-iodo-7H-pyrrolo[2,3-d]pyrimidin-7-yl)-4-fluoro-2-(hydroxymethyl) tetrahydrofuran-3-yl dihydrogen phosphate]
